According to the supplement of paper PMC5412046:
Structures can show the parent of a compound that is named as a salt.

Key:
SB.msgc-1 = assay: AC50 for growth inhibition (viability) (log10 M); higher = less potent; settings: SB.msgc-1 (sporadic gastric cancer)
In short: (§1)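 Gastric cancer cells derived from patients with hereditary or sporadic disease were seeded at 500 cells in 5 μL medium per 1536 well. A pintool delivered 23 nL of compound in DMSO, as 11 threefold dilutions from a final 46 μM. After 48 h, CellTiter-Glo was added for 30 min at room temperature and luminescence was read on a ViewLux. The log half-maximal activity concentration was taken from a four-parameter fit of viability normalised to DMSO, using only high-quality curve classes.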

SB.mhdgc-1 = assay: as above; settings: SB.mhdgc-1 (hereditary c.1380delA CDH1 gastric cancer)
In short: as §1

SMILES: C=C(C)[C@H]1Cc2c(ccc3c2O[C@@H]2COc4cc(OC)c(OC)cc4[C@@H]2C3=O)O1 [Rotenone]
- AC50 for growth inhibition (log10 M) (SB.msgc-1): -6.33
- AC50 for growth inhibition (log10 M) (SB.mhdgc-1): -5.38

SMILES: N/C(=N\C(=O)c1nc(Cl)c(N)nc1N)NCc1ccccc1 [Benzamil]
- AC50 for growth inhibition (log10 M) (SB.msgc-1): -5.53
- AC50 for growth inhibition (log10 M) (SB.mhdgc-1): -5.73

SMILES: CC(/C=C/C(=O)NO)=C\[C@@H](C)C(=O)c1ccc(N(C)C)cc1 [Trichostatin A]
- AC50 for growth inhibition (log10 M) (SB.msgc-1): -6.13
- AC50 for growth inhibition (log10 M) (SB.mhdgc-1): -5.88

SMILES: CC(=O)O[C@H]1C[C@@H]2CC[C@@H]3[C@H](CC[C@@]4(C)[C@H]3C[C@H]([N+]3(C)CCCCC3)[C@@H]4OC(C)=O)[C@@]2(C)C[C@@H]1N1CCCCC1 [Vecuronium bromide]
- AC50 for growth inhibition (log10 M) (SB.msgc-1): -5.58
- AC50 for growth inhibition (log10 M) (SB.mhdgc-1): -5.93

SMILES: O=C(Nc1ccc(F)c(C(F)(F)F)c1)Nc1nnc(-c2ccncc2)s1
- AC50 for growth inhibition (log10 M) (SB.msgc-1): -5.28
- AC50 for growth inhibition (log10 M) (SB.mhdgc-1): -5.53

SMILES: CC1(C)CNc2cc(NC(=O)c3cccnc3NCc3ccncc3)ccc21 [Motesanib]
- AC50 for growth inhibition (log10 M) (SB.msgc-1): -5.98
- AC50 for growth inhibition (log10 M) (SB.mhdgc-1): -7.23

SMILES: C[C@@H]1CC[C@@]2(OC1)O[C@H]3C[C@H]4[C@@H]5C/C=C6/C[C@H](CC[C@]6(C)[C@H]5CC[C@]4(C)[C@H]3[C@@H]2C)O[C@@H]7O[C@H](CO)[C@@H](O[C@@H]8O[C@@H](C)[C@H](O)[C@@H](O)[C@H]8O)[C@H](O)[C@H]7O[C@@H]9O[C@@H](C)[C@H](O)[C@@H](O)[C@H]9O [Dioscin]
- AC50 for growth inhibition (log10 M) (SB.msgc-1): -5.23
- AC50 for growth inhibition (log10 M) (SB.mhdgc-1): -5.38

SMILES: C[C@@]12C(=O)OC(=O)[C@@]1(C)C1CCC2O1 [Cantharidin]
- AC50 for growth inhibition (log10 M) (SB.msgc-1): -5.53
- AC50 for growth inhibition (log10 M) (SB.mhdgc-1): -5.28

SMILES: C=C1C(=O)O[C@@H]2[C@H]3O[C@]3(C)CC/C=C(\C)CC[C@@H]12 [Parthenolide]
- AC50 for growth inhibition (log10 M) (SB.msgc-1): -4.83
- AC50 for growth inhibition (log10 M) (SB.mhdgc-1): -5.18

SMILES: CCN(CC)CCNC(=O)c1c(C)[nH]c(/C=C2\C(=O)Nc3ccc(F)cc32)c1C [Sunitinib malate]
- AC50 for growth inhibition (log10 M) (SB.msgc-1): -4.42
- AC50 for growth inhibition (log10 M) (SB.mhdgc-1): -5.32

SMILES: CN(C)[C@@H](CCOc1cccc2ccccc12)c1ccccc1 [Dapoxetine hydrochloride]
- AC50 for growth inhibition (log10 M) (SB.msgc-1): -4.73
- AC50 for growth inhibition (log10 M) (SB.mhdgc-1): -5.48

SMILES: O=C1NC(=O)/C(=C/c2ccc3nccnc3c2)S1
- AC50 for growth inhibition (log10 M) (SB.msgc-1): -4.89
- AC50 for growth inhibition (log10 M) (SB.mhdgc-1): -4.84

SMILES: CC1=C(C=CC=C1)N2\C(=N/C3=C(C(=CC=C3)C)C2=O)C[N]4N=CC5=C4N=CN=C5N [PIK-293]
- AC50 for growth inhibition (log10 M) (SB.msgc-1): -7.08
- AC50 for growth inhibition (log10 M) (SB.mhdgc-1): -6.73

SMILES: O=C1[O][Pt]2([NH]C3CCCCC3[NH]2)[O]C1=O (centres undefined) [Oxaliplatin]
- AC50 for growth inhibition (log10 M) (SB.msgc-1): -5.58
- AC50 for growth inhibition (log10 M) (SB.mhdgc-1): -4.73

SMILES: CC(C)(C)Cn1c(N)nc2ccc(-c3[nH]c(C(C)(C)C)nc3-c3ccc(F)cc3)nc21
- AC50 for growth inhibition (log10 M) (SB.msgc-1): -4.73
- AC50 for growth inhibition (log10 M) (SB.mhdgc-1): -4.53

SMILES: COc1cc(C(=O)N2CCC(N3CCN(C)CC3)CC2)ccc1Nc1ncc2c(n1)N(C)c1ccccc1C(=O)N2C [LRRK2-IN-1]
- AC50 for growth inhibition (log10 M) (SB.msgc-1): -4.83
- AC50 for growth inhibition (log10 M) (SB.mhdgc-1): -4.78

SMILES: Cc1ccc(C(=O)Nc2cccc(C(F)(F)F)c2)cc1Nc1nc(-c2cccnc2)nc2c1cnn2C [NVP-BHG712]
- AC50 for growth inhibition (log10 M) (SB.msgc-1): -4.78
- AC50 for growth inhibition (log10 M) (SB.mhdgc-1): -4.83

SMILES: CCNC(=O)c1cc2c(-c3cc(OCCN4CCCC4)c(Cl)cc3Cl)nc(N)nc2s1
- AC50 for growth inhibition (log10 M) (SB.msgc-1): -6.38
- AC50 for growth inhibition (log10 M) (SB.mhdgc-1): -5.53

SMILES: ClC1=CC=C(C=C1)C(C#N)C2=C(Cl)C=C(C=C2Cl)N3\N=C/C(=O)NC3=O (centres undefined) [Diclazuril]
- AC50 for growth inhibition (log10 M) (SB.msgc-1): -4.73
- AC50 for growth inhibition (log10 M) (SB.mhdgc-1): -4.78

SMILES: CC[C@@H]1C(=O)N(C)c2cnc(Nc3ccc(C(=O)NC4CCC(N5CCN(CC6CC6)CC5)CC4)cc3OC)nc2N1C(C)C (some centres undefined) [Volasertib]
- AC50 for growth inhibition (log10 M) (SB.msgc-1): -7.03
- AC50 for growth inhibition (log10 M) (SB.mhdgc-1): -5.08

SMILES: CC1(C)O[C@@H]2C[C@H]3[C@@H]4C[C@H](F)C5=CC(=O)C=C[C@]5(C)[C@@]4(F)[C@@H](O)C[C@]3(C)[C@]2(C(=O)CO)O1 [Fluocinolone acetonide]
- AC50 for growth inhibition (log10 M) (SB.msgc-1): -4.93
- AC50 for growth inhibition (log10 M) (SB.mhdgc-1): -5.33

SMILES: CC(C)C[C@H](NC(=O)[C@H](Cc1ccccc1)NC(=O)c1cnccn1)B(O)O [Bortezomib]
- AC50 for growth inhibition (log10 M) (SB.msgc-1): -7.98
- AC50 for growth inhibition (log10 M) (SB.mhdgc-1): -7.78

SMILES: COc1cc(C[C@@H](CO)[C@H](CO)Cc2ccc(O)c(OC)c2)ccc1O [Secoisolariciresinol]
- AC50 for growth inhibition (log10 M) (SB.msgc-1): -6.63
- AC50 for growth inhibition (log10 M) (SB.mhdgc-1): -6.38

SMILES: CC[C@H](CC#N)OC(=O)N[C@@H](C)c1cccc(NC(=O)Nc2ccc(-c3cnco3)c(OC)c2)c1 [AVN-944]
- AC50 for growth inhibition (log10 M) (SB.msgc-1): -5.23
- AC50 for growth inhibition (log10 M) (SB.mhdgc-1): -5.88

SMILES: C=CC(=O)N1CCC[C@@H](n2nc(-c3ccc(Oc4ccccc4)cc3)c3c(N)ncnc32)C1
- AC50 for growth inhibition (log10 M) (SB.msgc-1): -7.48
- AC50 for growth inhibition (log10 M) (SB.mhdgc-1): -5.98

SMILES: OC1=CC2=C(C(=C1)O)C(=O)\C(=C(/O2)C3=CC(=C(O)C=C3)O)O [Quercetine]
- AC50 for growth inhibition (log10 M) (SB.msgc-1): -4.68
- AC50 for growth inhibition (log10 M) (SB.mhdgc-1): -5.13

SMILES: OC1=C(O)C2=C(\C=C/C(=O)O2)C=C1 [Daphnetin]
- AC50 for growth inhibition (log10 M) (SB.msgc-1): -4.78
- AC50 for growth inhibition (log10 M) (SB.mhdgc-1): -5.78

SMILES: CCOC(=O)[C@H](CCc1ccccc1)N[C@H]1CCc2ccccc2N(CC(=O)O)C1=O [Benzapril]
- AC50 for growth inhibition (log10 M) (SB.msgc-1): -4.68
- AC50 for growth inhibition (log10 M) (SB.mhdgc-1): -5.03

SMILES: COC1=CC=C2/C3=N/CCN3\C(=N/C2=C1OC)NC(=O)C4=CC=CN=C4 [PIK-90]
- AC50 for growth inhibition (log10 M) (SB.msgc-1): -4.98
- AC50 for growth inhibition (log10 M) (SB.mhdgc-1): -5.33

SMILES: Cc1cc(OCCCc2c(C(=O)O)n(Cc3cccnc3)c3c(-c4c(COc5ccc(N6CCN([S+](C)(=O)[O-])CC6)cc5)nn(C)c4C)cccc23)cc(C)c1Cl
- AC50 for growth inhibition (log10 M) (SB.msgc-1): -4.63
- AC50 for growth inhibition (log10 M) (SB.mhdgc-1): -4.73

SMILES: CC[C@@H](C)[C@H](NC(=O)[C@H](CC1CCCCC1)NC(=O)c1ccno1)C(=O)N1CCC2(CCc3ccccc32)CC1 [GB 83]
- AC50 for growth inhibition (log10 M) (SB.msgc-1): -4.98
- AC50 for growth inhibition (log10 M) (SB.mhdgc-1): -4.88

SMILES: CCN1CCN(c2ccc(Nc3cc(N(C)C(=O)Nc4c(Cl)c(OC)cc(OC)c4Cl)ncn3)cc2)CC1 [BGJ-398]
- AC50 for growth inhibition (log10 M) (SB.msgc-1): -4.73
- AC50 for growth inhibition (log10 M) (SB.mhdgc-1): -4.58

SMILES: C=CCc1cccc(/C=N/NC(=O)CN2CCN(Cc3ccccc3)CC2)c1O [PAC-1]
- AC50 for growth inhibition (log10 M) (SB.msgc-1): -5.23
- AC50 for growth inhibition (log10 M) (SB.mhdgc-1): -5.13

SMILES: CCN(CC)CCOC1=CC=C(NC2=NC=C3\C=C(/C(=O)N(C)C3=N2)C4=C(Cl)C=CC=C4Cl)C=C1
- AC50 for growth inhibition (log10 M) (SB.msgc-1): -5.98
- AC50 for growth inhibition (log10 M) (SB.mhdgc-1): -5.18

SMILES: O=C(OC)[C@]12CC[C@@]3(C)[C@]4(C)CC[C@H]5[C@@](C)(C)C(=O)C(=C[C@]5(C)C4=CC(=O)[C@@H]3[C@@H]2C[C@](C)(C)CC1)C#N [Bardoxolone methyl]
- AC50 for growth inhibition (log10 M) (SB.msgc-1): -6.33
- AC50 for growth inhibition (log10 M) (SB.mhdgc-1): -6.28

SMILES: CN1[C@@H]2CC(O)C[C@H]1[C@@H]1O[C@@H]12 (some centres undefined) [Scopine]
- AC50 for growth inhibition (log10 M) (SB.msgc-1): -4.83
- AC50 for growth inhibition (log10 M) (SB.mhdgc-1): -4.78

SMILES: CC(C)(C)NC(=O)[C@@H]1CN(Cc2cccnc2)CCN1C[C@@H](O)C[C@@H](Cc1ccccc1)C(=O)N[C@H]1c2ccccc2C[C@H]1O.O=S(=O)(O)O [Indinavir]
- AC50 for growth inhibition (log10 M) (SB.msgc-1): -4.78
- AC50 for growth inhibition (log10 M) (SB.mhdgc-1): -6.08
